# According to US6869783B1, “Method for producing chiral carboxylic acids from nitriles with the assistance of a nitrilase or microoganisms which contain a gene for the nitrilase” (BASF Aktiengesellschaft, priority 1998, dated 2005):
# Test system: nitrilase 1650
# Test: Conversion of various nitriles with nitrilase 1650 (NH4 ions in supernatant, microtiter plate)
# Format: biochemical, Alcaligenes faecalis 1650
# Set-up: Activity: unit not given here
# Settings: 10 mM substrate, 2 g/l dry biomass, 30° C, 2 hours, pH 7.2
Compound,% conversion [%],Activity
α-(3-heptyl)-nitro-triacetonitrile [Substrate 14],44.1,0.35

# Same assay, conditions: 10 mM substrate, 2 g/l dry biomass, 30° C, 2 hours, pH 7.2; average of a microtiter plate row
row,Compound,μmol/l (amount of NH4 ions produced in the supernatant) [µmol/L]
1,α-(3-heptyl)-nitro-triacetonitrile [Substrate 14],84.8

# Same assay, conditions: pH 7.2
Compound,% conversion [%],Activity,μmol/l (amount of NH4 ions produced in the supernatant) [µmol/L]
"CC(C#N)c1ccccc1 (stereo not shown) [Substrate 2, 2-phenylpropionitrile]",70.2,4.1,1001.1
"CCC(C#N)c1ccccc1 (stereo not shown) [Substrate 3, 2-phenylbutyronitrile]",44.3,0.1,24.4
"N#CCc1ccccc1 [Substrate 4, benzyl cyanide]",100,9.2,2210.5
"N#CCc1ccc(Cl)cc1 [Substrate 5, 4-chlorobenzyl cyanide]",100,8.9,2136.3
"N#CCc1ccc(Br)cc1 [Substrate 6, 4-bromobenzyl cyanide]",100,6.2,1500.8
"CCC#N [Substrate 7, propionitrile]",,0.02,4.9
"CCCCC#N [Substrate 10, valeronitrile]",,0.47,113.4
